Assay results reported in ChEMBL document CHEMBL1124608, “Synthesis of acylguanidine analogues: inhibitors of ADP-induced platelet aggregation” (J Med Chem, 1989).
≈ marks a conversion by molar mass, not a printed value. Where “and” joins values, the source holds several entries; their conditions need not be identical. Equal values may be shown once. Calls of active or inactive are those of the source. The rule behind the calls is not given here.

How the values were obtained:
[1] = organism: Homo sapiens; assay: Activity against PRP following incubation for 30 min in human whole blood; Inactive; assay type: functional, tissue-based
[2] = Inhibitory concentration required to inhibit ADP-induced platelet aggregation in human platelet rich plasma; assay type: functional, cell-free
[3] = Concentration required to inhibit in vitro ADP-induced platelet aggregation in human platelet rich plasma relative PGE1; assay type: functional
[4] = system: Cavia porcellus; assay: ADP-induced platelet aggregation activity was tested for oral activity in guinea pigs at dose 50 mg/kg
[5] = Inhibitory activity against ADP-induced platelet aggregation at concentration 3.2 ug/mL; assay type: functional, Homo sapiens
[6] = Inhibitory activity against ADP-induced platelet aggregation at concentration 10 ug/mL; assay type: functional, Homo sapiens; conditions: for inhibition at 10 µg/mL: Homo sapiens
[7] = organism: Homo sapiens; assay: Activity against PRP following incubation for 30 min in human whole blood; Active; assay type: functional, tissue-based
[8] = Inhibitory activity against ADP-induced platelet aggregation at concentration 1.0 ug/mL; assay type: functional; conditions: Homo sapiens
[9] = system: Rattus norvegicus; assay: ADP-induced platelet aggregation activity was tested for oral activity in rats at dose 100 mg/kg; assay type: functional
[10] = system: Cavia porcellus; assay: ADP-induced platelet aggregation activity was tested for oral activity in guinea pigs at dose 100 mg/kg; assay type: functional
[11] = system: Cavia porcellus; assay: ADP-induced platelet aggregation activity was tested for oral activity in guinea pigs at dose 30 mg/kg; assay type: functional
[12] = Inhibitory activity against ADP-induced platelet aggregation at concentration 10 ng/mL; assay type: functional, Homo sapiens
[13] = Inhibitory activity against ADP-induced platelet aggregation at concentration 32 ng/mL; assay type: functional, Homo sapiens
[14] = system: Rattus norvegicus; assay: ADP-induced platelet aggregation activity was tested for oral activity in rats at dose 30 mg/kg; assay type: functional
[15] = Inhibitory activity against ADP-induced platelet aggregation at concentration 1 ug/mL; assay type: functional, Homo sapiens
[16] = system: Cavia porcellus; assay: ADP-induced platelet aggregation activity was tested for oral activity in guinea pigs at dose 50 mg/kg; assay type: functional
[17] = system: Rattus norvegicus; assay: ADP-induced platelet aggregation activity was tested for oral activity in rats at dose 50 mg/kg; assay type: functional
[18] = system: Rattus norvegicus; assay: ADP-induced platelet aggregation activity was tested for oral activity in rats at dose 25 mg/kg; assay type: functional

| IC50 [2] | Compound | Relative potency [3] | Aggregation [9] | other results |
| --- | --- | --- | --- | --- |
| 10 µg/mL (≈ 8.9 µM) | O=C(NCc1cc(CNC(=O)N(C(=NC2CCCCC2)N2CCOCC2)C2CCCCC2)cc(CNC(=O)N(C(=NC2CCCCC2)N2CCOCC2)C2CCCCC2)c1)N(C(=NC1CCCCC1)N1CCOCC1)C1CCCCC1 | 0.001 |  | Activity [1]: inactive |
| 3.2 µg/mL (≈ 4.13 µM) | O=C(NCc1cccc(CNC(=O)N(C(=NC2CCCCC2)N2CCOCC2)C2CCCCC2)c1)N(C(=NC1CCCCC1)N1CCOCC1)C1CCCCC1 | 0.003 |  | Aggregation [4]: 19.3%; inhibition at 3.2 µg/mL ([5]; Homo sapiens): 40%; inhibition at 10 µg/mL [6]: 68%; Activity [7]: Active; inhibition at 1 µg/mL [8]: 27% |
| 10 µg/mL (≈ 13.8 µM) | O=C(NCCCCNC(=O)N(C(=NC1CCCCC1)N1CCOCC1)C1CCCCC1)N(C(=NC1CCCCC1)N1CCOCC1)C1CCCCC1 | 0.001 | 73.5% |  |
| 10 µg/mL (≈ 13.5 µM) | O=C(NCCCCCNC(=O)N(C(=NC1CCCCC1)N1CCOCC1)C1CCCCC1)N(C(=NC1CCCCC1)N1CCOCC1)C1CCCCC1 | 0.001 | 41% |  |
| 10 µg/mL (≈ 13.8 µM) | O=C(N1CCN(C(=O)N(/C(=N/C2CCCCC2)N2CCOCC2)C2CCCCC2)CC1)N(/C(=N/C1CCCCC1)N1CCOCC1)C1CCCCC1 | 0.001 | 44.8% |  |
| 3.2 µg/mL (≈ 4.4 µM) | CN(CCN(C)C(=O)N(C(=NC1CCCCC1)N1CCOCC1)C1CCCCC1)C(=O)N(C(=NC1CCCCC1)N1CCOCC1)C1CCCCC1 | 0.003 | 100% | Aggregation [10]: 0%; Aggregation [11]: 62.7% |
| 3.2 µg/mL (≈ 3.98 µM) | CN(Cc1cccc(CN(C)C(=O)N(C(=NC2CCCCC2)N2CCOCC2)C2CCCCC2)c1)C(=O)N(C(=NC1CCCCC1)N1CCOCC1)C1CCCCC1 | 0.003 | 38.5% |  |
| 0.01 µg/mL (≈ 0.0282 µM) | CCCCC[C@H](O)/C=C/[C@H]1[C@H](O)CC(=O)[C@@H]1CCCCCCC(=O)O [ALPROSTADIL] | 1 |  | Inhibition [12]: 56% and 28% and 37%; Inhibition [13]: 94% and 90% and 72% |
| 10 µg/mL (≈ 12.5 µM) | O=C(NCCCCCCCCCNC(=O)N(C(=NC1CCCCC1)N1CCOCC1)C1CCCCC1)N(C(=NC1CCCCC1)N1CCOCC1)C1CCCCC1 | 0.001 |  |  |
| 10 µg/mL (≈ 13 µM) | O=C(NCCCCCCCNC(=O)N(C(=NC1CCCCC1)N1CCOCC1)C1CCCCC1)N(C(=NC1CCCCC1)N1CCOCC1)C1CCCCC1 | 0.001 | 70.5% |  |
| 3.2 µg/mL (≈ 4.09 µM) | CN(CCCCCCN(C)C(=O)N(C(=NC1CCCCC1)N1CCOCC1)C1CCCCC1)C(=O)N(C(=NC1CCCCC1)N1CCOCC1)C1CCCCC1 | 0.003 | 52% | Aggregation [10]: 41%; Aggregation [14]: 81.2% |
| 3.2 µg/mL (≈ 4.24 µM) | O=C(NCCCCCCNC(=O)N(C(=NC1CCCCC1)N1CCOCC1)C1CCCCC1)N(C(=NC1CCCCC1)N1CCOCC1)C1CCCCC1 | 0.003 | 80.8% | Inhibition [5]: 38% and 62%; Inhibition [6]: 85%; inhibition at 10 µg/mL [6]: 82%; Inhibition [15]: 27%; inhibition at 1 µg/mL ([15]; Homo sapiens): 29%; Activity [7]: Active |
| 10 µg/mL (≈ 13.3 µM) | O=C(NCCCCCCNC(=O)N(C(=NC1CCCCC1)N1CCCCC1)C1CCCCC1)N(C(=NC1CCCCC1)N1CCCCC1)C1CCCCC1 | 0.001 | 46.2% | Aggregation [16]: 47.7%; Aggregation [10]: 48.7%; Aggregation [17]: 86%; Aggregation [18]: 83.2% |
| 10 µg/mL (≈ 12.8 µM) | O=C(NCCCCCCCCNC(=O)N(C(=NC1CCCCC1)N1CCOCC1)C1CCCCC1)N(C(=NC1CCCCC1)N1CCOCC1)C1CCCCC1 | 0.001 |  |  |
| 10 µg/mL | Cl.Cl.O=C(NCCCCCCNC(=O)N(/C(=N/C1CCCCC1)N1CCOCC1)C1CCCCC1)N(/C(=N\C1CCCCC1)N1CCOCC1)C1CCCCC1 | 0.001 | 84.5% |  |
